Among the data in patent US8871767B2, “2-arylimidazo[1,2-B]pyridazine, 2-phenylimidazo[1,2-A]pyridine, and 2-phenylimidazo[1,2-A]pyrazine derivatives” (Hengrui (USA) Ltd., priority 2010, dated 2014) are IC50 values, retold here.

The test system of the first assay is Hedgehog pathway activation (GLi-luciferase reporter) in Shh Light II reporter cells. Briefly: Hedgehog pathway activation on Shh Light II reporter cells measured by luciferase activity. In kind it is cell-based. Conditions: Mus musculus, Shh Light II, hShh activation, read-out: Shh (IC50, inhibition of Hedgehog pathway activation). The protocol:
Hedgehog conditioned media was obtained by transfecting 293H cells with the full length gene encoding human Sonic Hedgehog (hShh) inserted into the pCMV6 expression vector, which contains a neomycin selectable marker and expresses the protein of interest with a C-terminal FLAG affinity tag. After selection in G418 containing media, conditioned media from Hedgehog expressing clones were tested for the ability to activate the hedgehog-responsive GLi-luciferase reporter in the Shh Light II cell line obtained by license from John Hopkins University (Taipale J, et al. Effects of oncogenic mutations in Smoothened and Patched can be reversed by cyclopamine. Nature 406: 1005-1009, 2000).
A test compound library was screened against hShh and 500 nM SAG (a direct agonist of the Smoothened receptor) activated 10T1/2/Smo#3 cells and Shh Light II reporter cells for the ability to block Hedgehog pathway activation. Concurrently, cell viability was measured by utilizing Celltiter-Blue® (Promega, Madison Wis.) viability assay. Active compounds were defined as those that inhibited Hedgehog signaling by greater than 50% with no concurrent loss in cell viability.
Their inhibitory activity against Hedgehog pathway activation on 10T1/2/Smo#3 cells as measured by ALP activity and Shh Light II reporter cells as measured by luciferase activity is shown in Table 1 below. In Table 1, +++ stands for an IC50 value that is less than 0.3 μM, ++ between 0.3 and 3 μM, + between 3 and 30 μM.
Additional data for compounds of the invention is shown below in Table 2. Their inhibitory activities against Hedgehog pathway activation are shown as IC50 values in μM on 10T1/2/Smo#3 cells as measured by ALP activity, or on Shh Light II reporter cells as measured by luciferase activity (hShh activation).
Usually IC50 stands for the concentration at which inhibition is half-maximal. In the case of `COc1ccc2nc(-c3ccc(C)c(NC(=O)c4ccc(S(C)(=O)=O)cc4Cl)c3)cn2n1` [Example 95, 2-chloro-N-(5-(6-methoxyimidazo[1,2-b]pyridazin-2-yl)-2-methylphenyl)-4-(methylsulfonyl)benzamide], the concentration for half-maximal inhibition (IC50) turned out to be 7860 nM.
Still for that read-out and setting: the value for `Cc1ccc(F)c(-c2ccc3nc(-c4ccc(C(F)(F)F)c(NC(=O)C(C)(C)C)c4)cn3n2)c1` [Example 226, N-(5-(6-(2-fluoro-5-methylphenyl)imidazo[1,2-b]pyridazin-2-yl)-2-(trifluoromethyl)phenyl)pivalamide] was 1480 nM; that for `COc1ccc(F)c(-c2ccc3nc(-c4ccc(C(F)(F)F)c(NC(=O)C(C)(C)C)c4)cn3n2)c1` [Example 228, N-(5-(6-(2-fluoro-5-methoxyphenyl)imidazo[1,2-b]pyridazin-2-yl)-2-(trifluoromethyl)phenyl)pivalamide] was 325 nM; that for `COc1cccc(-c2ccc3nc(-c4ccc(C(F)(F)F)c(NC(=O)C(C)(C)C)c4)cn3n2)c1` [Example 229, N-(5-(6-(3-methoxyphenyl)imidazo[1,2-b]pyridazin-2-yl)-2-(trifluoromethyl)phenyl)pivalamide] was 313 nM.
On the same count and under the same terms, the value for `CC(C)(C)C(=O)Nc1cc(-c2cn3nc(-c4cccs4)ccc3n2)ccc1C(F)(F)F` [Example 230, N-(5-(6-(thiophen-2-yl)imidazo[1,2-b]pyridazin-2-yl)-2-(trifluoromethyl)phenyl)pivalamide] was 1550 nM.
Still for that read-out and setting: the result for `Cc1ccc(-c2cn3nc(-c4cc(CO)ccc4F)ccc3n2)cc1NC(=O)C(C)(C)C` [Example 275, N-(5-(6-(2-fluoro-5-(hydroxymethyl)phenyl)imidazo[1,2-b]pyridazin-2-yl)-2-methylphenyl)pivalamide] reads 1800 nM; that for `Cc1ccc(-c2cn3nc(-c4ccccc4O)ccc3n2)cc1NC(=O)C(C)(C)C` [Example 276, N-(5-(6-(2-hydroxyphenyl)imidazo[1,2-b]pyridazin-2-yl)-2-methylphenyl)pivalamide], 1960 nM; that for `Cc1ccc(-c2cn3nc(N4CCC(F)(F)C4)ccc3n2)cc1NC(=O)C(C)(C)C` [Example 277, N-(5-(6-(3,3-difluoropyrrolidin-1-yl)imidazo[1,2-b]pyridazin-2-yl)-2-methylphenyl)pivalamide], 350 nM.
As for `Cc1ccc(-c2cn3nc(N4CCC(F)(F)CC4)ccc3n2)cc1NC(=O)C(C)(C)C` [Example 282, N-(5-(6-(4,4-difluoropiperidin-1-yl)imidazo[1,2-b]pyridazin-2-yl)-2-methylphenyl)pivalamide], the IC50 is 1450 nM.
The same measure, in the same setting: the result for `CC(C)(C)C(=O)Nc1cc(-c2cn3nc(NC4CCC(O)CC4)ccc3n2)ccc1C(F)(F)F` (stereo not shown) [Example 314, N-(5-(6-(4-hydroxycyclohexylamino)imidazo[1,2-b]pyridazin-2-yl)-2-(trifluoromethyl)phenyl)pivalamide] reads 346 nM; that for `CC(C)(C)C(=O)Nc1cc(-c2cn3nc(N4CC(F)(F)C4)ccc3n2)ccc1C(F)(F)F` [Example 315, N-(5-(6-(3,3-difluoroazetidin-1-yl)imidazo[1,2-b]pyridazin-2-yl)-2-(trifluoromethyl)phenyl)pivalamide], 807 nM.
Take `CN1CCN(c2ccc3nc(-c4ccc(C(F)(F)F)c(NC(=O)C(C)(C)C)c4)cn3n2)CC1` [Example 316, N-(5-(6-(4-methylpiperazin-1-yl)imidazo[1,2-b]pyridazin-2-yl)-2-(trifluoromethyl)phenyl)pivalamide]: the IC50 is 937 nM.
On the same count and under the same terms, the result for `CCN1CCN(c2ccc3nc(-c4ccc(C(F)(F)F)c(NC(=O)C(C)(C)C)c4)cn3n2)CC1` [Example 317, N-(5-(6-(4-ethylpiperazin-1-yl)imidazo[1,2-b]pyridazin-2-yl)-2-(trifluoromethyl)phenyl)pivalamide] reads 1250 nM; that for `CC(C)(C)C(=O)Nc1cc(-c2cn3nc(N4CCC(N)C4)ccc3n2)ccc1C(F)(F)F` (stereo not shown) [Example 318, N-(5-(6-(3-aminopyrrolidin-1-yl)imidazo[1,2-b]pyridazin-2-yl)-2-(trifluoromethyl)phenyl)pivalamide], 203 nM.
On the same count and under the same terms, the value for `C#Cc1ccc(-c2cn3nc(-c4ccccc4F)ccc3n2)cc1N` [Example 320, 2-ethynyl-5-(6-(2-fluorophenyl)imidazo[1,2-b]pyridazin-2-yl)aniline] was 9260 nM; that for `Cc1ccc(-c2cn3nc(-c4ccc(C(F)(F)F)nc4)ccc3n2)cc1NC(=O)C(C)(C)C` [Example 322, N-(2-methyl-5-(6-(6-(trifluoromethyl)pyridin-3-yl)imidazo[1,2-b]pyridazin-2-yl)phenyl)pivalamide] was 917 nM; that for `CC(C)(C)C(=O)Nc1cc(-c2cn3nc(-c4cccc(CO)c4)ccc3n2)ccc1C(F)(F)F` [Example 323, N-(5-(6-(3-(hydroxymethyl)phenyl)imidazo[1,2-b]pyridazin-2-yl)-2-(trifluoromethyl)phenyl)pivalamide] was 2580 nM.
On the same count and under the same terms, the result for `CC(C)c1ccccc1-c1ccc2nc(-c3ccc(C(F)(F)F)c(NC(=O)C(C)(C)C)c3)cn2n1` [Example 324, N-(5-(6-(2-isopropylphenyl)imidazo[1,2-b]pyridazin-2-yl)-2-(trifluoromethyl)phenyl)pivalamide] reads 1460 nM.
As to `CC(C)(C)C(=O)Nc1cc(-c2cn3nc(-c4cccc(S(C)(=O)=O)c4)ccc3n2)ccc1C(F)(F)F` [Example 325, N-(5-(6-(3-(methylsulfonyl)phenyl)imidazo[1,2-b]pyridazin-2-yl)-2-(trifluoromethyl)phenyl)pivalamide], the IC50 is 740 nM.
On the same count and under the same terms, the result for `Cc1noc(C)c1-c1ccc2nc(-c3ccc(C(F)(F)F)c(NC(=O)C(C)(C)C)c3)cn2n1` [Example 326, N-(5-(6-(3,5-dimethylisoxazol-4-yl)imidazo[1,2-b]pyridazin-2-yl)-2-(trifluoromethyl)phenyl)pivalamide] reads 217 nM; that for `CC(C)(C)OC(=O)N1CCN(c2ccc3nc(-c4ccc(C(F)(F)F)c(NC(=O)C(C)(C)C)c4)cn3n2)CC1` [Example 327, tert-butyl 4-(2-(3-pivalamido-4-(trifluoromethyl)phenyl)imidazo[1,2-b]pyridazin-6-yl)piperazine-1-carboxylate], 484 nM.
On the same count and under the same terms, the result for `CC(C)(C)C(=O)Nc1cc(-c2cn3nc(N4CCNCC4)ccc3n2)ccc1C(F)(F)F` [Example 328, N-(5-(6-(piperazin-1-yl)imidazo[1,2-b]pyridazin-2-yl)-2-(trifluoromethyl)phenyl)pivalamide] reads 3540 nM; that for `CC1CNCCN1c1ccc2nc(-c3ccc(C(F)(F)F)c(NC(=O)C(C)(C)C)c3)cn2n1` (stereo not shown) [Example 329, N-(5-(6-(2-methylpiperazin-1-yl)imidazo[1,2-b]pyridazin-2-yl)-2-(trifluoromethyl)phenyl)pivalamide], 2020 nM; that for `CC(C)(C)C(=O)Nc1cc(-c2cn3nc(NC4CCNCC4)ccc3n2)ccc1C(F)(F)F` [Example 330, N-(5-(6-(piperidin-4-ylamino)imidazo[1,2-b]pyridazin-2-yl)-2-(trifluoromethyl)phenyl)pivalamide], 676 nM.

The assay is the same for the next values; noted with them: hShh activation, read-out: Shh (IC50, inhibition of Hedgehog pathway activation).
With `CC(C)(C)C(=O)Nc1cc(-c2cn3nc(N4CCC(N)C4)ccc3n2)ccc1C(F)(F)F` (stereo not shown) [Example 319, N-(5-(6-(3-aminopyrrolidin-1-yl)imidazo[1,2-b]pyridazin-2-yl)-2-(trifluoromethyl)phenyl)pivalamide], the IC50 was determined as 347 nM.
